A word on the inhibition: it is the percentage by which the read-out fell short of the control. One may read the EC50 as the concentration that produces a half-maximal response. What is called CC50 is the concentration at which the toxic effect on the cells reaches its halfway point. Read a low CC50 as greater toxicity to the cells.

This note sets out measurements from ChEMBL document CHEMBL3407442, “Synthesis and biological evaluation of α-aryl-α-tetralone derivatives as hepatitis C virus inhibitors” (Eur J Med Chem, 2015).

Series [1] has as its system Hepatitis C virus. As to the kind of experiment: Antiviral activity against HCV genotype 1b infected in human Huh7/Rep-Feo1b replicon cells assessed as inhibition of viral viral RNA replication at 50 uM incubated for 48 hrs by luciferase reporter gene assay. Type of series: functional, Hepacivirus hominis. To be noted: Huh-7, 48 h. In general terms: In antiviral work, replicon cells carry a viral genome segment that copies itself.

Series [2] relates to Hepatitis C virus. As to the kind of experiment: Antiviral activity against HCV genotype 1b infected in human Huh7/Rep-Feo1b replicon cells assessed as inhibition of viral viral RNA replication incubated for 48 hrs by luciferase reporter gene assay. Format: functional, cell-based, Hepacivirus hominis. As to conditions: Huh-7, 48 h.
Series [3] is described as follows: Cytotoxicity against human Huh7.5 cells by MTS assay. Format: cell-based, Huh-7. (Tetrazolium assays rely on reduction of a dye to a coloured formazan, in cell work by metabolically active cells.)
Series [4] in a line: Selectivity index, ratio of CC50 for human Huh7.5 cells to EC50 for HCV genotype 1b infected in human Huh7/Rep-Feo1b replicon cells. More on the design: species or system Huh-7.
Series [5] deals with Hepatitis C virus. As to the kind of experiment: Antiviral activity against HCV genotype 2a infected in human Huh7.5-FGR-JC1-Rluc2A replicon cells assessed as inhibition of viral viral RNA replication at 50 uM incubated for 48 hrs by luciferase reporter gene assay. To be noted: Huh-7, 48 h. Type of series: functional, Hepacivirus hominis.
The subject of series [6] is Hepatitis C virus. As to the kind of experiment: Antiviral activity against HCV genotype 2a infected in human Huh7.5-FGR-JC1-Rluc2A replicon cells assessed as inhibition of viral viral RNA replication incubated for 48 hrs by luciferase reporter gene assay. As to conditions: Huh-7, 48 h. Type of series: functional, cell-based, Hepacivirus hominis.
Series [7] is described as follows: Selectivity index, ratio of CC50 for human Huh7.5 cells to EC50 for HCV genotype 2a infected in human Huh7.5-FGR-JC1-Rluc2A replicon cells. More on the design: species or system Huh-7.

For `COc1ccccc1C1CCc2ccccc2C1=O` (centres undefined), the inhibition at 50 µM with Hepatitis C virus [1] amounted to 48.4%; in the series on Hepatitis C virus [5] it was 84.4%. Also, the EC50 in the series with Hepatitis C virus [2] was 50.1 µM; with Hepatitis C virus [6], 14.3 µM. Also, the CC50 in series [3] came out at 117 µM. For the same molecule, the “Ratio CC50/EC50” value is 2.3 in series [4] and 8.2 in series [7].
Turning to `COc1ccc(C2CCc3ccccc3C2=O)c(OC)c1` (centres undefined), the inhibition at 50 µM in the series on Hepatitis C virus [1] was found to be 55.6%; with Hepatitis C virus [5], 83.9%. The figures for the EC50 with Hepatitis C virus [2] and in the series with Hepatitis C virus [6] were 44.3 µM and 11 µM, respectively. Besides, it took 63.6 µM to reach half-maximal cytotoxicity in series [3] (CC50). The “Ratio CC50/EC50” value in series [4] came to 1.4; in series [7] it was 5.7.
With `COc1ccc2c(c1)CCC(c1ccccc1OC)C2=O` (centres undefined), the figures for the inhibition at 50 µM in the series with Hepatitis C virus [1] and with Hepatitis C virus [5] were 86.4% and 88.8%, respectively. Further, the EC50 was determined as 10.6 µM in the series with Hepatitis C virus [2] and 1.5 µM in the series with Hepatitis C virus [6]. The same molecule registered a CC50 in series [3] of 152 µM. The “Ratio CC50/EC50” value in series [4] was 14.3; in series [7], 101.4.
As for `COc1ccc2c(c1)CCC(c1ccc(OC)cc1OC)C2=O` (centres undefined), the values for the inhibition at 50 µM in the series on Hepatitis C virus [1] and in the series on Hepatitis C virus [5] were 89.5% and 93.4%, respectively. Further, the EC50 is 7.5 µM with Hepatitis C virus [2] and 3.3 µM with Hepatitis C virus [6]. This molecule also showed a CC50 in series [3] of under 50 µM. In addition, the “Ratio CC50/EC50” value in series [4] was under 6.6; in series [7] it was under 15.3.
Turning to `COc1ccc2c(c1)C(=O)C(c1ccccc1OC)CC2` (centres undefined), the values for the inhibition at 50 µM in the series on Hepatitis C virus [1] and in the series with Hepatitis C virus [5] were 85.4% and 91.8%, respectively. For the same molecule, the EC50 in the series with Hepatitis C virus [2] amounted to 29.5 µM; in the series on Hepatitis C virus [6], 3.6 µM. The molecule further had a CC50 in series [3] of 111 µM. The “Ratio CC50/EC50” value in series [4] is recorded as 3.7; in series [7] it was 30.8.
For `COc1ccc(C2CCc3ccc(OC)cc3C2=O)c(OC)c1` (centres undefined), the inhibition at 50 µM came to 95.2% in the series on Hepatitis C virus [1] and 97.6% in the series with Hepatitis C virus [5]. The EC50 in the series on Hepatitis C virus [2] is 14.3 µM; in the series on Hepatitis C virus [6], 15 µM. Further, the CC50 in series [3] is under 50 µM. Moreover, the “Ratio CC50/EC50” value was under 3.5 in series [4] and under 3.3 in series [7].
Take `COc1ccccc1C1CCc2c(OC)cccc2C1=O` (centres undefined): the inhibition at 50 µM is 51.7% in the series on Hepatitis C virus [1] and 86.6% in the series on Hepatitis C virus [5]. Besides, the EC50 with Hepatitis C virus [2] came to 48.5 µM; in the series with Hepatitis C virus [6], 10.8 µM. In series [3], this molecule came in with a CC50 of over 200 µM. The “Ratio CC50/EC50” value in series [4] is on record as over 4.1; in series [7], over 18.5.
For the molecule `COc1ccc(C2CCc3c(OC)cccc3C2=O)c(OC)c1` (centres undefined), the inhibition at 50 µM in the series on Hepatitis C virus [1] came out at 96.5%; in the series with Hepatitis C virus [5] it was 99.5%. For the same molecule, the EC50 was 12.8 µM in the series with Hepatitis C virus [2] and 3.2 µM in the series with Hepatitis C virus [6]. In series [3], this molecule gave a 50% cytotoxic concentration (CC50) of 104 µM. In addition, the “Ratio CC50/EC50” value in series [4] worked out at 8.2; in series [7] it was 32.6.
On to `COc1cc2c(cc1OC)C(=O)C(c1ccccc1OC)CC2` (centres undefined), for which the results for the inhibition at 50 µM with Hepatitis C virus [1] and with Hepatitis C virus [5] were 60.2% and 79.9%, respectively. The EC50 is 42.5 µM with Hepatitis C virus [2] and 4.8 µM in the series with Hepatitis C virus [6]. This molecule yielded a CC50 in series [3] of 126 µM. The “Ratio CC50/EC50” value in series [4] was found to be 2.9; in series [7], 26.2.
Consider `COc1ccc(C2CCc3cc(OC)c(OC)cc3C2=O)c(OC)c1` (centres undefined), for which the inhibition at 50 µM in the series with Hepatitis C virus [1] worked out at 89.6%; with Hepatitis C virus [5], 86.8%. The EC50 was 1.8 µM in the series with Hepatitis C virus [2] and 4.3 µM with Hepatitis C virus [6]. The molecule also registered a CC50 in series [3] of over 200 µM. Besides, the Ratio CC50/EC50 was over 111 in series [4] and over 46.1 in series [7].
On to `COc1ccccc1C1CCc2c(OC)ccc(OC)c2C1=O` (centres undefined), for which the inhibition at 50 µM with Hepatitis C virus [1] came out at 80.6%; with Hepatitis C virus [5], 88.8%. Besides, the EC50 in the series with Hepatitis C virus [2] came out at 8 µM; with Hepatitis C virus [6], 6.8 µM. The same molecule displayed a CC50 in series [3] of over 200 µM. Besides, the “Ratio CC50/EC50” value in series [4] is on record as over 24.9; in series [7], over 29.5.
Take `COc1ccc(C2CCc3c(OC)ccc(OC)c3C2=O)c(OC)c1` (centres undefined): the inhibition at 50 µM in the series on Hepatitis C virus [1] is 73.8%; with Hepatitis C virus [5] it was 86.2%. Besides, the EC50 in the series with Hepatitis C virus [2] is 8.2 µM; in the series on Hepatitis C virus [6], 21.5 µM. For the same molecule, the CC50 in series [3] is under 50 µM. In addition, the entries for the “Ratio CC50/EC50” value in series [4] and in series [7] were under 6 and under 2.3, respectively.
In the case of `COc1cccc2c1CCC(c1ccccc1O)C2=O` (centres undefined), the values for the inhibition at 50 µM in the series with Hepatitis C virus [1] and in the series on Hepatitis C virus [5] were 26.1% and 86%, respectively. This molecule yielded a CC50 in series [3] of 111 µM. The EC50 in the series on Hepatitis C virus [6] is 10.8 µM. Also, the “Ratio CC50/EC50” value in series [7] worked out at 10.2.
Consider `COc1ccccc1C1CCc2c(O)ccc(OC)c2C1=O` (centres undefined), for which the inhibition at 50 µM with Hepatitis C virus [1] stood at 41.2%; in the series on Hepatitis C virus [5] it was 44%. The molecule further had a CC50 in series [3] of over 200 µM.
Consider `COc1ccc(O)c2c1C(=O)C(c1ccccc1OCc1ccccc1)CC2` (centres undefined), for which the inhibition at 50 µM came to 99.1% with Hepatitis C virus [1] and 98% with Hepatitis C virus [5]. Further, the values for the EC50 with Hepatitis C virus [2] and in the series with Hepatitis C virus [6] were 6.21 µM and 4.4 µM, respectively. The CC50 in series [3] is under 50 µM. Besides, the “Ratio CC50/EC50” value in series [4] is under 8; in series [7], under 11.3.
